From ChEMBL document CHEMBL3397028, “Synthesis and antimicrobial activity of novel benzoxazine sulfonamide derivatives” (2015) come the findings set out here.

What all share (assay type): functional
In one test the test system is Priestia megaterium. Description: Antimicrobial activity against Bacillus megaterium MTCC 3382 after 18 hrs by broth micro dilution method. The conditions noted are these: MTCC 3382, 18 h.
The next test deals with Xanthomonas campestris. Description: Antimicrobial activity against Xanthomonas campestris after 18 hrs by broth micro dilution method.
A further test concerns Pseudomonas aeruginosa. As to the kind of experiment: Antimicrobial activity against Pseudomonas aeruginosa MTCC 1034 after 18 hrs by broth micro dilution method. The conditions noted are these: MTCC 1034, 18 h.
In another test the test system is Escherichia coli. As to the kind of experiment: Antimicrobial activity against Escherichia coli MTCC 1089 after 18 hrs by broth micro dilution method. The conditions noted are these: MTCC 1089, 18 h.
A further test relates to Candida albicans. As to the kind of experiment: Antimicrobial activity against Candida albicans MTCC 183 after 48 to 72 hrs by broth micro dilution method.

In brackets after ≈: the same amount, converted by molar mass.

As to `O=C1COc2ccc(S(=O)(=O)NCCCN3CCN(c4ccccc4)CC3)cc2N1`, the MIC (in general, the smallest concentration in the dilution series that meets the test's criterion for growth inhibition) amounted to 250 µg/mL (≈ 581 µM) in the test with Priestia megaterium; 500 µg/mL (≈ 1160 µM) against Xanthomonas campestris; 500 µg/mL (≈ 1160 µM) with Pseudomonas aeruginosa; 500 µg/mL (≈ 1160 µM) with Escherichia coli; 500 µg/mL (≈ 1160 µM) in the test on Candida albicans.

Consider `O=C1COc2ccc(S(=O)(=O)NCCCN3CCN(c4ccc(C(F)(F)F)cc4)CC3)cc2N1`, for which the MIC is 62.5 µg/mL (≈ 125 µM) against Priestia megaterium; 125 µg/mL (≈ 251 µM) with Xanthomonas campestris; 125 µg/mL (≈ 251 µM) against Pseudomonas aeruginosa; 500 µg/mL (≈ 1000 µM) against Escherichia coli; 125 µg/mL (≈ 251 µM) against Candida albicans.

In the case of `COc1ccccc1N1CCN(CCCNS(=O)(=O)c2ccc3c(c2)NC(=O)CO3)CC1`, the minimal inhibitory concentration (MIC) amounted to 31.2 µg/mL (≈ 67.9 µM) in the test with Priestia megaterium; 125 µg/mL (≈ 271 µM) against Xanthomonas campestris; 125 µg/mL (≈ 271 µM) with Pseudomonas aeruginosa; 250 µg/mL (≈ 543 µM) against Escherichia coli; 62.5 µg/mL (≈ 136 µM) in the test with Candida albicans.

As for `O=C1COc2ccc(S(=O)(=O)NCCCN3CCN(c4ccccc4F)CC3)cc2N1`, the minimal inhibitory concentration (MIC) came out at 31.2 µg/mL (≈ 69.7 µM) in the test on Priestia megaterium; 62.5 µg/mL (≈ 139 µM) in the test on Xanthomonas campestris; 62.5 µg/mL (≈ 139 µM) against Pseudomonas aeruginosa; 125 µg/mL (≈ 279 µM) in the test with Escherichia coli; 125 µg/mL (≈ 279 µM) in the test on Candida albicans.

Consider `O=C1COc2ccc(S(=O)(=O)NCCCN3CCN(c4ccc(F)cc4)CC3)cc2N1`, for which the MIC was determined as 250 µg/mL (≈ 557 µM) against Priestia megaterium; 125 µg/mL (≈ 279 µM) against Xanthomonas campestris; 62.5 µg/mL (≈ 139 µM) in the test on Pseudomonas aeruginosa; 500 µg/mL (≈ 1110 µM) against Escherichia coli; 250 µg/mL (≈ 557 µM) in the test on Candida albicans.

For the compound `Cc1cc2c(cc1S(=O)(=O)NCCCN1CCN(c3ccc(C(F)(F)F)cc3)CC1)NC(=O)CO2`, the MIC turned out to be 62.5 µg/mL (≈ 122 µM) against Priestia megaterium; 62.5 µg/mL (≈ 122 µM) with Xanthomonas campestris; 250 µg/mL (≈ 488 µM) against Pseudomonas aeruginosa; 250 µg/mL (≈ 488 µM) in the test on Escherichia coli; 125 µg/mL (≈ 244 µM) in the test with Candida albicans.

For the compound `COc1ccccc1N1CCN(CCCNS(=O)(=O)c2cc3c(cc2C)OCC(=O)N3)CC1`, the MIC in the test on Priestia megaterium amounted to 250 µg/mL (≈ 527 µM); against Xanthomonas campestris it was 500 µg/mL (≈ 1050 µM); in the test on Pseudomonas aeruginosa, 500 µg/mL (≈ 1050 µM); against Escherichia coli, 500 µg/mL (≈ 1050 µM); with Candida albicans, 250 µg/mL (≈ 527 µM).

`Cc1cc2c(cc1S(=O)(=O)NCCCN1CCN(c3ccccc3F)CC1)NC(=O)CO2`: the minimum inhibitory concentration (MIC) with Priestia megaterium, against Xanthomonas campestris, with Pseudomonas aeruginosa, against Escherichia coli and against Candida albicans was 250 µg/mL (≈ 540 µM) throughout.

As to `Cc1cc2c(cc1S(=O)(=O)NCCCN1CCN(c3ccccc3)CC1)NC(=O)CO2`, the minimal inhibitory concentration (MIC) in the test with Priestia megaterium, against Xanthomonas campestris, against Pseudomonas aeruginosa, in the test on Escherichia coli and against Candida albicans was 250 µg/mL (≈ 562 µM) each time.

On to `Cc1cc2c(cc1S(=O)(=O)NCCCN1CCSCC1)NC(=O)CO2`, for which the minimal inhibitory concentration (MIC) against Priestia megaterium came out at 125 µg/mL (≈ 324 µM); in the test on Xanthomonas campestris, 250 µg/mL (≈ 648 µM); in the test on Pseudomonas aeruginosa it was 500 µg/mL (≈ 1300 µM); in the test on Escherichia coli it was 500 µg/mL (≈ 1300 µM); in the test with Candida albicans, 250 µg/mL (≈ 648 µM).

For the compound `Cc1cc2c(cc1S(=O)(=O)N1CCN(c3ccc(C(F)(F)F)cc3)CC1)N(CC(=O)c1ccc(-c3ccccc3)cc1)C(=O)CO2`, the minimal inhibitory concentration (MIC) in the test on Priestia megaterium turned out to be 125 µg/mL (≈ 192 µM); against Xanthomonas campestris, 125 µg/mL (≈ 192 µM); against Pseudomonas aeruginosa, 125 µg/mL (≈ 192 µM); in the test on Escherichia coli it was 250 µg/mL (≈ 385 µM); against Candida albicans, 125 µg/mL (≈ 192 µM).

On to `Cc1cc2c(cc1S(=O)(=O)N1CCN(c3ccc(C(F)(F)F)cc3)CC1)N(CC(=O)c1ccccc1)C(=O)CO2`, for which the MIC in the test on Priestia megaterium, in the test with Xanthomonas campestris, with Pseudomonas aeruginosa, in the test with Escherichia coli and against Candida albicans was 250 µg/mL (≈ 436 µM) in each case.

As for `Cc1ccc(C(=O)CN2C(=O)COc3cc(C)c(S(=O)(=O)N4CCN(c5ccc(C(F)(F)F)cc5)CC4)cc32)cc1`, the minimal inhibitory concentration (MIC) with Priestia megaterium was 125 µg/mL (≈ 213 µM); with Xanthomonas campestris it was 125 µg/mL (≈ 213 µM); in the test with Pseudomonas aeruginosa it was 31.2 µg/mL (≈ 53.2 µM); in the test with Escherichia coli, 62.5 µg/mL (≈ 106 µM); in the test on Candida albicans, 250 µg/mL (≈ 425 µM).

Turning to `Cc1cc2c(cc1S(=O)(=O)N1CCN(c3ccc(C(F)(F)F)cc3)CC1)N(CC(=O)c1ccc([N+](=O)[O-])cc1)C(=O)CO2`, the MIC against Priestia megaterium was determined as 31.2 µg/mL (≈ 50.5 µM); with Xanthomonas campestris, 125 µg/mL (≈ 202 µM); with Pseudomonas aeruginosa it was 31.2 µg/mL (≈ 50.5 µM); against Escherichia coli it was 62.5 µg/mL (≈ 101 µM); against Candida albicans it was 31.2 µg/mL (≈ 50.5 µM).

In the case of `COc1ccc(C(=O)CN2C(=O)COc3cc(C)c(S(=O)(=O)N4CCN(c5ccc(C(F)(F)F)cc5)CC4)cc32)cc1`, the MIC against Priestia megaterium was determined as 62.5 µg/mL (≈ 104 µM); with Xanthomonas campestris, 250 µg/mL (≈ 414 µM); against Pseudomonas aeruginosa, 125 µg/mL (≈ 207 µM); in the test on Escherichia coli, 250 µg/mL (≈ 414 µM); in the test with Candida albicans it was 250 µg/mL (≈ 414 µM).

Regarding `Cc1cc2c(cc1S(=O)(=O)N1CCN(c3ccc(C(F)(F)F)cc3)CC1)N(CC(=O)c1ccc(Cl)cc1)C(=O)CO2`, the minimum inhibitory concentration (MIC) was found to be 250 µg/mL (≈ 411 µM) in the test with Priestia megaterium; 500 µg/mL (≈ 822 µM) in the test with Xanthomonas campestris; 500 µg/mL (≈ 822 µM) in the test on Pseudomonas aeruginosa; 500 µg/mL (≈ 822 µM) against Escherichia coli; 500 µg/mL (≈ 822 µM) in the test with Candida albicans.

For `Cc1cc2c(cc1S(=O)(=O)N1CCN(c3ccc(C(F)(F)F)cc3)CC1)N(CC(=O)c1cccs1)C(=O)CO2`, the MIC in the test with Priestia megaterium was determined as 31.2 µg/mL (≈ 53.9 µM); against Xanthomonas campestris it was 125 µg/mL (≈ 216 µM); against Pseudomonas aeruginosa, 31.2 µg/mL (≈ 53.9 µM); with Escherichia coli it was 125 µg/mL (≈ 216 µM); in the test on Candida albicans it was 31.2 µg/mL (≈ 53.9 µM).

On to `COc1ccccc1N1CCN(S(=O)(=O)c2cc3c(cc2C)OCC(=O)N3CC(=O)c2ccc(-c3ccccc3)cc2)CC1`, for which the minimal inhibitory concentration (MIC) came out at 62.5 µg/mL (≈ 102 µM) with Priestia megaterium; 125 µg/mL (≈ 204 µM) in the test on Xanthomonas campestris; 250 µg/mL (≈ 409 µM) against Pseudomonas aeruginosa; 500 µg/mL (≈ 817 µM) against Escherichia coli; 500 µg/mL (≈ 817 µM) against Candida albicans.

For `COc1ccccc1N1CCN(S(=O)(=O)c2cc3c(cc2C)OCC(=O)N3CC(=O)c2ccccc2)CC1`, the MIC with Priestia megaterium is 62.5 µg/mL (≈ 117 µM); with Xanthomonas campestris, 62.5 µg/mL (≈ 117 µM); against Pseudomonas aeruginosa, 125 µg/mL (≈ 233 µM); against Escherichia coli it was 125 µg/mL (≈ 233 µM); in the test with Candida albicans, 62.5 µg/mL (≈ 117 µM).

For the compound `COc1ccccc1N1CCN(S(=O)(=O)c2cc3c(cc2C)OCC(=O)N3CC(=O)c2ccc(C)cc2)CC1`, the MIC with Priestia megaterium stood at 125 µg/mL (≈ 227 µM); against Xanthomonas campestris it was 125 µg/mL (≈ 227 µM); against Pseudomonas aeruginosa it was 62.5 µg/mL (≈ 114 µM); against Escherichia coli, 62.5 µg/mL (≈ 114 µM); in the test on Candida albicans it was 62.5 µg/mL (≈ 114 µM).

As for `COc1ccccc1N1CCN(S(=O)(=O)c2cc3c(cc2C)OCC(=O)N3CC(=O)c2ccc([N+](=O)[O-])cc2)CC1`, the MIC against Priestia megaterium came to 62.5 µg/mL (≈ 108 µM); in the test on Xanthomonas campestris, 125 µg/mL (≈ 215 µM); in the test with Pseudomonas aeruginosa it was 250 µg/mL (≈ 431 µM); in the test with Escherichia coli, 250 µg/mL (≈ 431 µM); against Candida albicans, 250 µg/mL (≈ 431 µM).

As for `COc1ccc(C(=O)CN2C(=O)COc3cc(C)c(S(=O)(=O)N4CCN(c5ccccc5OC)CC4)cc32)cc1`, the minimal inhibitory concentration (MIC) came to 31.2 µg/mL (≈ 55.2 µM) in the test with Priestia megaterium; 62.5 µg/mL (≈ 110 µM) against Xanthomonas campestris; 31.2 µg/mL (≈ 55.2 µM) against Pseudomonas aeruginosa; 62.5 µg/mL (≈ 110 µM) with Escherichia coli; 31.2 µg/mL (≈ 55.2 µM) in the test on Candida albicans.

Turning to `COc1ccccc1N1CCN(S(=O)(=O)c2cc3c(cc2C)OCC(=O)N3CC(=O)c2ccc(Cl)cc2)CC1`, the MIC in the test on Priestia megaterium was 250 µg/mL (≈ 439 µM); with Xanthomonas campestris, 125 µg/mL (≈ 219 µM); against Pseudomonas aeruginosa, 250 µg/mL (≈ 439 µM); against Escherichia coli, 250 µg/mL (≈ 439 µM); in the test with Candida albicans it was 250 µg/mL (≈ 439 µM).

As to `COc1ccccc1N1CCN(S(=O)(=O)c2cc3c(cc2C)OCC(=O)N3CC(=O)c2cccs2)CC1`, the minimal inhibitory concentration (MIC) in the test on Priestia megaterium came out at 500 µg/mL (≈ 923 µM); with Xanthomonas campestris it was 250 µg/mL (≈ 462 µM); in the test on Pseudomonas aeruginosa, 250 µg/mL (≈ 462 µM); with Escherichia coli, 250 µg/mL (≈ 462 µM); with Candida albicans, 250 µg/mL (≈ 462 µM).

In the case of `Cc1cc2c(cc1S(=O)(=O)N1CCN(c3ccc(C(F)(F)F)cc3)CC1)NC(=O)CO2`, the minimal inhibitory concentration (MIC) was determined as 250 µg/mL (≈ 549 µM) with Priestia megaterium; 500 µg/mL (≈ 1100 µM) against Xanthomonas campestris; 250 µg/mL (≈ 549 µM) against Pseudomonas aeruginosa; 500 µg/mL (≈ 1100 µM) in the test with Escherichia coli; 500 µg/mL (≈ 1100 µM) in the test with Candida albicans.

In the case of `COc1ccccc1N1CCN(S(=O)(=O)c2cc3c(cc2C)OCC(=O)N3)CC1`, the minimum inhibitory concentration (MIC) in the test with Priestia megaterium was found to be 250 µg/mL (≈ 599 µM); in the test with Xanthomonas campestris, 500 µg/mL (≈ 1200 µM); in the test with Pseudomonas aeruginosa, 500 µg/mL (≈ 1200 µM); against Escherichia coli it was 500 µg/mL (≈ 1200 µM); against Candida albicans it was 500 µg/mL (≈ 1200 µM).

As for `OC(Cn1cncn1)(Cn1cncn1)c1ccc(F)cc1F` [FLUCONAZOLE], the MIC in the test with Candida albicans worked out at 32 µg/mL (≈ 104 µM).

Regarding `CO[C@H]1/C=C/O[C@@]2(C)Oc3c(C)c(O)c4c(O)c(c(/C=N/N5CCN(C)CC5)c(O)c4c3C2=O)NC(=O)/C(C)=C\C=C\[C@H](C)[C@H](O)[C@@H](C)[C@@H](O)[C@@H](C)[C@H](OC(C)=O)[C@@H]1C` [RIFAMPIN], the MIC against Priestia megaterium came out at 64 µg/mL (≈ 77.8 µM); with Xanthomonas campestris it was 32 µg/mL (≈ 38.9 µM); against Pseudomonas aeruginosa, 32 µg/mL (≈ 38.9 µM); against Escherichia coli it was 64 µg/mL (≈ 77.8 µM).
